The source of these data is patent US8703951B2, “Synthesis of 4H-benzo[D]pyrrolo[1,2-A]thiazoles and indolizino[6,7-b]indole derivatives and their use as antitumor therapeutic agents” (Academia Sinica, priority 2011, dated 2014).

Molecules are shown by their SMILES. Like-named read-outs stand apart in the source and are kept apart here.

Data set [1] has as its system cisplatin-resistant NTUB 1/P human bladder carcinoma xenografts. The note with it: combination with arsenic trioxide (ATO); background; cited from earlier work.
In data set [2] the test system is human large cell lung carcinoma H460 xenograft. The note with it: combination with arsenic trioxide (ATO); background; cited from earlier work.
Data set [3] has as its system oral cancer OECM-1. Description: In vitro cytotoxicity, Alamar blue assay, OECM-1. In kind it is cell-based, human. On the procedure: (§1) Prostate cancer PC3, non-small cell lung carcinoma cells H1299, and human glioma cells U87 were purchased from the American Type Culture Collection (Rockville, Md.). OECM-1 (human gingival squamous cell carcinoma cells) was obtained from Dr C.-L. Meng (National Defense Medical College, Taiwan).^22
(§2) In preparation for in vitro cytotoxicity assays, cells were cultured at an initial density 2−5×10^4 cells per milliliter. They were maintained in a 5% CO2-humidified atmosphere at 37° C. in RPMI medium 1640 (GIBCO/BRL) containing penicillin (100 units/mL), streptomycin (100 μg/mL, GIBCO/BRL), and 5% heat-inactivated FBS. For cells grown in suspension (such as CCRF-CEM and its sublines), cytotoxicity was measured, by using XTT microculture method^23 in 96-well microtiter plates.
(§3) The cytotoxic effects of the newly synthesized compounds were determined in T-cell acute lymphocytic leukemia (CCRF-CEM) and their resistant subcell lines (CCRF-CEM/Taxol and CCRF-CEM/VBL) by the XTT assay^24 and human solid tumor cells (i.e. breast carcinoma MX-1 and colon carcinoma HCT-116) by the SRB assay^25 in a 72 h incubation using a microplate spectrophotometer as described previously.^25 After the addition of phenazine methosulfate-XTT solution, incubated at 37° C. for 6 h and absorbance at 450 and 630 nm was detected on a microplate reader (EL 340). The cytotoxicity of the newly synthesized compounds against non-small cell lung carcinoma H1299, prostate cancer PC3, oral cancer OECM-1 and glioma U87 were determined by the Alamar blue assay^26 in a 72 h incubation using a microplate spectrophotometer as described previously. After the addition of alamar blue solution, it was incubated at 37° C. for 6 h. Absorbance at 570 and 600 nm was detected on a microplate reader. IC50 values were determined from dose-effect relationship at six or seven concentrations of each drug using the CompuSyn software by Chou and Martin^27 based on the median-effect principle and plot.^28,29 Ranges given for Cisplatin were mean±SE (n=4).
(Alamar Blue is a resazurin reagent that responds to reducing activity.)

Data set [4] deals with colon carcinoma HCT-116. Put plainly: In vitro cytotoxicity, SRB assay, HCT-116. The format is cell-based, human.
Excerpt: (§4) Human colon carcinoma HCT-116 cells and human prostate adenocarcinoma PC-3 cells were obtained from American Type Culture Collection (ATCC, Rockville, Md.). Human mammary carcinoma (MX-1) tumor cells were obtained from MSKCC cell bank. The CCRF-CEM human lymphoblastic leukemia cells and their vinblastine resistant subline (CCRF-CEM/VBL, 680-fold resistance in vitro) were obtained from Dr. William Beck of the University of Illinois, Chicago, and CCRF-CEM/Taxol (330-fold resistance in vitro). Resistant cells CCRF-CEM/taxol were produced by exposing the parent cells to increasing sublethal concentration (IC50-IC90) of paclitaxel for six months.
as §2, §3
(In general: The SRB assay estimates cell density from bound dye.)

Data set [5] deals with prostate cancer PC3. Put plainly: In vitro cytotoxicity, Alamar blue assay, PC3. In kind it is cell-based, human. The protocol: as §1, §2, §3
The subject of data set [6] is CCRF-CEM/VBL. Description: In vitro cytotoxicity, XTT assay, CCRF-CEM/VBL. The format is cell-based, human. Particulars: Table 5; for fold of cross-resistant vs IC50 of the parent cell line, CCRF-CEM/VBL: number in brackets; for IC50: vinblastine-resistant subline, XTT, 72 h, read-out: Cell Growth inhibition (IC50 μM) CCRF-CEM/VBL.
Excerpt: as §4, §2, §3
In general terms: Formazan colour is commonly taken as a measure of viable cells.

The test system of data set [7] is non-small cell lung carcinoma H1299. Put plainly: In vitro cytotoxicity, Alamar blue assay, H1299. In kind it is cell-based, human. On the procedure: as §1, §2, §3
Data set [8] has as its system glioma U87. Description: In vitro cytotoxicity, Alamar blue assay, U87. In kind it is cell-based, human. On the procedure: as §1, §2, §3
Data set [9] deals with breast carcinoma MX-1. Description: In vitro cytotoxicity, SRB assay, MX-1. In kind it is cell-based, human. The note with it: Table 6, 72 h.
Excerpt: as §4, §2, §3

Data set [10] concerns human lymphoblastic leukemia (CCRF-CEM). Description: In vitro cytotoxicity, XTT assay, CCRF-CEM. In kind it is cell-based.
Excerpt: as §4, §2, §3

Data set [11] has as its system CCRF-CEM/Taxol. Put plainly: In vitro cytotoxicity, XTT assay, CCRF-CEM/Taxol. In kind it is cell-based, human. Particulars: Table 5; for IC50: Taxol-resistant subline, XTT, 72 h, read-out: Cell Growth inhibition (IC50 μM) CCRF-CEM/Taxol; for fold of cross-resistant vs IC50 of the parent cell line, CCRF-CEM/Taxol: number in brackets.
Excerpt: as §4, §2, §3

The subject of data set [12] is MX-1 human mammary xenograft. Description: Therapeutic efficacy in nude mice bearing MX-1 xenograft. In kind it is in vivo. Particulars: for complete tumor remission (CR): FIG. 6, i.v. inj., n=4. The protocol:
Athymic nude mice bearing the nu/nu gene were obtained from NCI, Frederick, Md. and used for all human tumor xenografts. Male nude mice, 6 weeks or older, weighing 20-24 g or more were used. Compounds were administered via the tail vein for i.v. injection or infusion as described previously.^26 A typical formulation for chemotherapeutic studies for each drug was dissolved in DSMO to make a 25 mg/ml fresh solution, 0.4 ml of this solution was mixed with 0.3 ml of Tween 80, plus 1.3 ml to make 2 ml of 5 mg/ml solution. Bolus injection volume was 0.1-0.2 ml per mouse. Tumor volume was assessed by measuring length×width×height (or width) by using a caliper. For tumor-bearing nude mice during the course of the experiment, the body weight refers to total weight minus the weight of the tumor. All animal studies were conducted in accordance with the guidelines for the National Institute of Health Guide for the Care and Use of Animals and the protocol approved by the Institutional Animal Care and Use Committee.

In data set [13] the test system is linearized pBR322DNA. Description: DNA cross-linking, alkaline agarose gel shift assay. In kind it is biochemical. The note with it: 1, 10, and 20 μM; FIG. 8. The protocol:
Formation of DNA cross-linking was analyzed by alkaline agarose gel electrophoresis assay. […] The reaction mixture was incubated at 37° C. for 2 h. At the end of reaction, the plasmid DNA was linearized by digestion with BamHI and followed by precipitation with ethanol. The DNA pellets were dissolved and denatured in alkaline buffer (0.5 N NaOH-10 mM EDTA). An aliquot of 20 μL of DNA solution (1000 ng) was mixed with 4 μL of 6× alkaline loading dye and then electrophoretically resolved on a 0.8% alkaline agarose gel with NaOH-EDTA buffer at 4° C. The electrophoresis was carried out at 18 V for 22 h. After staining the gels with an ethidium bromide solution, the DNA was then visualized under UV light.

The mark [14] stands for this setting: Table 5, 72 h incubation, read-out: Cell Growth inhibition (IC50 μM) CCRF-CEM.

One may read the melting point as the temperature of the solid-liquid transition.

For the molecule `CNC(=O)OCc1c(COC(=O)NC)c(-c2ccc(OC)cc2)n2c1Cc1ccccc1-2` [BO-1012], the tumor suppression in [1] is reported as over 92%; in [2], “more than 82%”.
As to `CC(C)NC(=O)OCc1c(-c2ccc(F)cc2)c2sc3ccccc3n2c1COC(=O)NC(C)C` [Compound 20b, (1-(4-Fluorophenyl)benzo[d]pyrrolo[2,1-b]thiazole-2,3-diyl)bis(methylene)bis(iso-propylcarbamate)], the IC50 was 11.9 ± 2.9 µM in data set [3] (Table 6, 72 h); 0.35 ± 0.01 µM in data set [4] (Table 6, 72 h); 24.2 ± 4.17 µM in data set [5] (Table 6, 72 h); 0.19 ± 0.003 µM in data set [6]; 33 ± 3.2 µM in data set [7] (Table 6, 72 h); 53.5 ± 9.97 µM in data set [8] (Table 6, 72 h). For the same molecule, the IC50 came out at 0.62 ± 0.014 µM in data set [9], 0.05 ± 0.001 µM in data set [10] (setting [14]) and 0.16 ± 0.007 µM in [11]. Further, in [6], the “fold of cross-resistant vs IC50 of the parent cell line, CCRF-CEM/VBL” value (from here on “fold of cross-resistant vs IC50 … CCRF-CEM/VBL”) is given as 3.80 ×. Also, the “fold of cross-resistant vs IC50 of the parent cell line, CCRF-CEM/Taxol” value (“fold of cross-resistant vs IC50 … CCRF-CEM/Taxol” for short) in data set [11] came to 3.20 ×. For the same molecule, the “complete tumor remission (CR), mice” value in data set [12] (20 mg/kg, Q2Dx3 and then 25 mg/kg, Q2D×4, iv. inj., on D26 and 28) is “two out of three”.
In turn, `CCn1c2c(c3ccccc31)Cc1c(CO)c(CO)c(C)n1C2` [Compound 33b, [6-Ethyl-3-methyl-6,11-dihydro-5H-indolizino[6,7-b]indole-1,2-diyl]dimethanol] returned a melting point of 216 to 217 °C. The IC50 in data set [3] (Homo sapiens, OECM1, Table 7, 72 h) was 1.17 ± 0.89 µM. Further, the IC50 in data set [5] (Homo sapiens, Table 7, 72 h) stood at 2.66 ± 0.47 µM. In data set [7] (Homo sapiens, NCI-H1299, Table 7, 72 h), this molecule returned an IC50 of 2.97 ± 0.55 µM. Also, the IC50 in data set [8] (Homo sapiens, Table 7, 72 h) was found to be 6.26 ± 1.43 µM. In data set [10] (Homo sapiens, CCRF-CEM, Table 7, 72 h, read-out: IC50 (μM) CCRF/CEM), the IC50 came to 0.1 ± 0.002 µM. Also, the “complete tumor remission (CR)” value in data set [12] was “CR was achieved”.
Take `CC(C)NC(=O)OCc1c(COC(=O)NC(C)C)c2n(c1-c1ccc(F)cc1)CC(C)c1c-2[nH]c2ccccc12` (centres unmarked) [Compound 28c, [3-(4-Fluorophenyl)-6-methyl-6,11-dihydro-5H-indolizino[6,7-b]indole-1,2-diyl]bis(methylene) (isopropylcarbamate)]: the IC50 in data set [3] (Table 7, 72 h, read-out: IC50 (μM) OECM1) was 6.56 ± 1.15 µM; in [7] (Table 7, 72 h) it was 16.9 ± 2.69 µM; in data set [10] (Table 7, 72 h, read-out: IC50 (μM) CCRF/CEM), 0.106 ± 0.004 µM. In addition, in [12], the “complete tumor remission (CR)” value is “CR was achieved”.
In the case of `OCc1c(CO)c2sc3ccccc3n2c1-c1ccc(Cl)cc1` [Compound 18c, (1-(4-Chlorophenyl)benzo[d]pyrrolo[2,1-b]thiazole-2,3-diyl)dimethanol], the DNA interstrand cross-linking result in data set [13] is “able to bind covalently (interstrand cross-linking) with DNA”. Also, the IC50 turned out to be 14.6 ± 1.13 µM in data set [3] (Homo sapiens, OECM1, Table 6, 72 h); 9.26 ± 0.049 µM in data set [4] (Homo sapiens, HCT-116, Table 6, 72 h); 20.4 ± 3.43 µM in data set [5] (Homo sapiens, Table 6, 72 h); 4.09 ± 0.025 µM in [6] (Homo sapiens, CCRF-CEM); 12.4 ± 0.44 µM in data set [7] (Homo sapiens, NCI-H1299, Table 6, 72 h); 20.7 ± 2.26 µM in data set [8] (Homo sapiens, Table 6, 72 h). Also, the IC50 in data set [9] (Homo sapiens) worked out at 10.4 ± 0.003 µM; in data set [10] (Homo sapiens, CCRF-CEM, Table 5, 72 h incubation, read-out: Cell Growth inhibition (IC50 μM) CCRF-CEM), 2.61 ± 0.03 µM; in [11] (Homo sapiens, CCRF-CEM), 5.22 ± 0.026 µM. In addition, the “fold of cross-resistant vs IC50 … CCRF-CEM/VBL” value in [6] was determined as 1.56 ×. For the same molecule, the “fold of cross-resistant vs IC50 … CCRF-CEM/Taxol” value in [11] was found to be 2.00 ×.
As for `CC(C)NC(=O)OCc1c(COC(=O)NC(C)C)c2sc3ccccc3n2c1-c1ccc(Cl)cc1` [Compound 20c, (1-(4-Chlorophenyl)benzo[d]pyrrolo[2,1-b]thiazole-2,3-diyl)bis(methylene)bis(iso-propylcarbamate)], the DNA interstrand cross-linking result in data set [13] is listed as “able to bind covalently (interstrand cross-linking) with DNA”. Further, the IC50 in [3] (Table 6, 72 h) was determined as 7.54 ± 0.95 µM; in data set [4] (Table 6, 72 h) it was 1.7 ± 0.006 µM; in [5] (Table 6, 72 h), 13.7 ± 1.28 µM; in data set [6], 0.42 ± 0.001 µM; in data set [7] (Table 6, 72 h), 8.75 ± 0.88 µM; in [8] (Table 6, 72 h), 29 ± 4.49 µM. The values for the IC50 in data set [9], in [10] (setting [14]) and in data set [11] were 1.19 ± 0.004 µM, 0.08 ± 0.0003 µM and 0.39 ± 0.004 µM, respectively. Besides, the “fold of cross-resistant vs IC50 … CCRF-CEM/VBL” value in [6] was 5.25 ×. For the same molecule, the “fold of cross-resistant vs IC50 … CCRF-CEM/Taxol” value in [11] is listed as 4.87 ×. Also, in [12] (20 mg/kg, Q2Dx3 and then 25 mg/kg, Q2Dx5, on D24, 26, and 26, FIG. 5A), the “complete tumor remission, mice” value is listed as “all three”.
